According to patent US9814704B2, “Substituted pyrrolo[2,3-b]pyridines as MLK inhibitors” (The University of Rochester, priority 2008, dated 2017):

Target: MLK3 (Homo sapiens (Human), UniProt Q16584)
Experiment: Radiometric Filter Plate MLK3 Assay
Type: biochemical
Conditions: 200 ng (130 nM) MLK3, 1 μM inactive MKK7b, 2 μM cold ATP (Km), 33P ATP, twenty minute incubation; read-out: MK3 IC50
Description: Radiometric Filter Plate MLK3 Assay
After a twenty minute incubation, the reactions were washed through filter plates and read on a scintillation counter. Results are shown in Table 4 below, in which +++ indicates ≦0.1 μM, ++ indicates >0.1 μM and ≦1 μM, and + indicates >1 μM.

MLK3, sequence (Q16584 whole entry): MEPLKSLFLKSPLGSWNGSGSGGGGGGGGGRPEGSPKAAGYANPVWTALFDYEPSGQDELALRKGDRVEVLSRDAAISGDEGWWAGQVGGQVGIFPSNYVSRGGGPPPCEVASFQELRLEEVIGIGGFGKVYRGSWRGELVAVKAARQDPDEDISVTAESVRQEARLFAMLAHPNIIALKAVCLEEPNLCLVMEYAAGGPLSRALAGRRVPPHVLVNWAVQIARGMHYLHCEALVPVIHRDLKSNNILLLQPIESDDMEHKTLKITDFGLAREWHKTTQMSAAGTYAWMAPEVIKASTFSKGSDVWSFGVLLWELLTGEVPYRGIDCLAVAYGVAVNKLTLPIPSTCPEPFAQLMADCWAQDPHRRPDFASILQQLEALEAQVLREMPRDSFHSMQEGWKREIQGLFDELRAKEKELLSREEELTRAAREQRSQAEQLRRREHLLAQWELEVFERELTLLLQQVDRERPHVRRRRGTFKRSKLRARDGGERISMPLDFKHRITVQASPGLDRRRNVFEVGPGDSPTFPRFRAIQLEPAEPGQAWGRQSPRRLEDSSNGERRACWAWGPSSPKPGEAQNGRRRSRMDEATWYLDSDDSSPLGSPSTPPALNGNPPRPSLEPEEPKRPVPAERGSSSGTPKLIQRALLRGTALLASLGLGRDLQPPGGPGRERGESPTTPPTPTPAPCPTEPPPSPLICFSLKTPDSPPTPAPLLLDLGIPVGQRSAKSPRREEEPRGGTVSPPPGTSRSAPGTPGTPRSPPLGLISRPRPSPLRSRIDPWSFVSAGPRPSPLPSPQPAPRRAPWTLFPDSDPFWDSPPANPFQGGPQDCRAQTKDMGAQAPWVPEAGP

Row | IC50 [nM] | SMILES
1 | < 100 | COc1ccc(-c2cnc3[nH]cc(-c4ccc(C(N)=O)cc4)c3c2)cc1OC [Example 26, 4-(5-(3,4-dimethoxyphenyl)-1H-pyrrolo[2,3-b]pyridin-3-yl)benzamide]
2 | > 1000 | CNC(=O)c1ccc(-c2c[nH]c3ncc(-c4cc(OC)c(OC)c(OC)c4)cc23)cc1 [Example 164, N-methyl-4-[5-(3,4,5-trimethoxy-phenyl)-1H-pyrrolo[2,3-b]pyridin-3-yl]-benzamide]
3 | > 1000 | COc1ccc(-n2c(=O)[nH]c3ncc(-c4ccc(O)cc4)nc32)cc1 [Example 70, 6-(4-hydroxyphenyl)-1-(4-methoxyphenyl)-1H-imidazo[4,5-b]pyrazin-2(3H)-one]
4 | < 100 | CN1CCN(Cc2cccc(-c3cnc4[nH]cc(-c5ccc6[nH]ccc6c5)c4c3)c2)CC1=O [Example 143, 4-{3-[3-(1H-indol-5-yl)-1H-pyrrolo[2,3-b]pyridin-5-yl]-benzyl}-1-methyl-piperazin-2-one]
5 | < 100 | COc1cc(-c2cnc3[nH]cc(-c4ccc5[nH]ccc5c4)c3n2)ccc1OCCN1CCOCC1 [Example 39, 4-(2-(4-(7-(1H-indol-5-yl)-5H-pyrrolo[3,2-b]pyrazin-2-yl)-2-methoxyphenoxy)ethyl)morpholine]
6 | < 100 | COc1cc(-c2cnc3[nH]c(=O)n(-c4ccc5[nH]ccc5c4)c3n2)ccc1OCCN1CCOCC1 [Example 57, 1-(1H-indol-5-yl)-6-(3-methoxy-4-(2-morpholinoethoxy)phenyl)-1H-imidazo[4,5-b]pyrazin-2(3H)-one]
7 | < 100 | COc1cc(-c2cnc3[nH]cc(-c4ccc(NC(C)=O)cc4)c3c2)cc(OC)c1OC [Example 16, N-(4-(5-(3,4,5-trimethoxyphenyl)-1H-pyrrolo[2,3-b]pyridin-3-yl)phenyl)acetamide]
8 | < 100 | CN1CCN(Cc2cccc(-c3cnc4[nH]cc(-c5ccc(C(N)=O)cc5)c4c3)c2)CC1 [Example 156, 4-{5-[3-(4-methyl-piperazin-1-ylmethyl)-phenyl]-1H-pyrrolo[2,3-b]pyridin-3-yl}-benzamide]
9 | > 1000 | COc1cc(-c2cnc3c(c2)/C(=C\c2ccncc2)C(=O)N3)cc(OC)c1OC [Example 129, (E)- and (Z)-3-pyridin-4-ylmethylene-5-(3,4,5-trimethoxy-phenyl)-1,3-dihydro-pyrrolo[2,3-b]pyridin-2-one]
10 | < 100 | COc1cc(-c2cnc3[nH]cc(-c4ccc(C(N)=O)cc4)c3c2)cc(OC)c1OC [Example 25, 4-(5-(3,4,5-trimethoxyphenyl)-1H-pyrrolo[2,3-b]pyridin-3-yl)benzamide]
11 | > 1000 | Cc1cc(C)cc(-c2cnc3[nH]c(=O)n(-c4ccc5[nH]ccc5c4)c3n2)c1 [Example 46, 6-(3,5-dimethylphenyl)-1-(1H-indol-5-yl)-1H-imidazo[4,5-b]pyrazin-2(3H)-one]
12 | < 100 | CC(C)(C)OC(=O)N1CCN(Cc2ccc(-c3cnc4[nH]cc(-c5ccc6[nH]ccc6c5)c4c3)cc2)CC1 [Example 144, 4-{4-[3-(1H-indol-5-yl)-1H-pyrrolo[2,3-b]pyridin-5-yl]-benzyl}-piperazine-1-carboxylic acid tert-butyl ester]
13 | > 1000 | Cc1cc2cc(-n3c(=O)[nH]c4ncc(-c5cc(Cl)cc(Cl)c5)nc43)ccc2[nH]1 [Example 73, 6-(3,5-dichlorophenyl)-1-(2-methyl-1H-indol-5-yl)-1H-imidazo[4,5-b]pyrazin-2(3H)-one]
14 | > 1000 | O=c1[nH]c2ncc(-c3ccc4cc[nH]c4c3)nc2n1-c1ccc2[nH]ccc2c1 [Example 56, 1-(1H-indol-5-yl)-6-(1H-indol-6-yl)-1H-imidazo[4,5-b]pyrazin-2(3H)-one]
15 | > 1000 | COc1cc(OC)cc(-c2cnc3[nH]c(=O)n(-c4ccc5[nH]ccc5c4)c3n2)c1 [Example 65, 6-(3,5-dimethoxyphenyl)-1-(1H-indol-5-yl)-1H-imidazo[4,5-b]pyrazin-2(3H)-one]
16 | > 1000 | O=c1[nH]c2ncc(-c3cc(F)cc(F)c3)nc2n1-c1ccc2[nH]ccc2c1 [Example 61, 6-(3,5-difluorophenyl)-1-(1H-indol-5-yl)-1H-imidazo[4,5-b]pyrazin-2(3H)-one]
17 | > 1000 | COc1cc(-c2cnc3c(c2)C(=Cc2ccccc2)C(=O)N3)cc(OC)c1OC [Example 130, 3-benzylidene-5-(3,4,5-trimethoxy-phenyl)-1,3-dihydro-pyrrolo[2,3-b]pyridin-2-one]
18 | < 100 | COc1ccc(-c2cnc3[nH]cc(-c4ccc5[nH]ccc5c4)c3n2)cc1OC [Example 37, 2-(3,4-dimethoxyphenyl)-7-(1H-indol-5-yl)-5H-pyrrolo[3,2-b]pyrazine]
19 | < 100 | COc1cc(-c2cnc3[nH]c(=O)n(-c4ccc5[nH]ccc5c4)c3n2)ccc1O [Example 55, 6-(4-hydroxy-3-methoxyphenyl)-1-(1H-indol-5-yl)-1H-imidazo[4,5-b]pyrazin-2(3H)-one]
20 | < 100 | COc1cc(-c2cnc3[nH]c(=O)n(-c4ccc5[nH]cnc5c4)c3n2)cc(OC)c1OC [Example 102, 1-(1H-benzo[d]imidazol-5-yl)-6-(3,4,5-trimethoxyphenyl)-1H-imidazo[4,5-b]pyrazin-2(3H)-one]
21 | > 1000 | COc1cc(-c2cnc3[nH]c(=O)n(CC4CC4)c3c2)cc(OC)c1OC [Example 125, 1-(cyclopropylmethyl)-6-(3,4,5-trimethoxyphenyl)-1H-imidazo[4,5-b]pyridin-2(3H)-one]
22 | < 100 | COc1cc(-c2cnc3[nH]c(=O)n(C4Cc5ccccc5C4)c3n2)cc(OC)c1OC [Example 110, 1-(2,3-dihydro-1H-inden-2-yl)-6-(3,4,5-trimethoxyphenyl)-1H-imidazo[4,5-b]pyrazin-2(3H)-one]
23 | > 1000 | COc1cc(-c2cnc3ncn(-c4ccc5[nH]ccc5c4)c3n2)cc(OC)c1OC [Example 126, 1-(1H-indol-5-yl)-6-(3,4,5-trimethoxyphenyl)-1H-imidazo[4,5-b]pyrazine]
24 | < 100 | COc1cc(-c2cnc3[nH]c(=O)n(C4CCCC4)c3n2)cc(OC)c1OC [Example 74, 1-cyclopentyl-6-(3,4,5-trimethoxyphenyl)-1H-imidazo[4,5-b]pyrazin-2(3H)-one]
25 | > 1000 | COc1ccc(-c2cnc3[nH]c(=O)n(-c4ccc5[nH]ncc5c4)c3n2)cc1OC [Example 87, 6-(3,4-dimethoxyphenyl)-1-(1H-indazol-5-yl)-1H-imidazo[4,5-b]pyrazin-2(3H)-one]

Same assay, conditions: read-out: MK3 IC50

Row | IC50 [nM] | SMILES
26 | 100 to 1000 | O=c1[nH]c2ncc(-c3ccc(N4CCOCC4)cc3)nc2n1-c1ccc(O)cc1 [Example 116, 1-(4-hydroxyphenyl)-6-(4-morpholinophenyl)-1H-imidazo[4,5-b]pyrazin-2(3H)-one]
27 | 100 to 1000 | c1cc2cc(-c3c[nH]c4ncc(-c5ccc(N6CCNCC6)nc5)cc34)ccc2[nH]1 [Example 10, 3-(1H-indol-5-yl)-5-(6-(piperazin-1-yl)pyridin-3-yl)-1H-pyrrolo[2,3-b]pyridine]
28 | 100 to 1000 | COc1cc(-c2cnc3[nH]cc(-c4ccc(CNC(=O)CCc5ccccc5)cc4)c3c2)cc(OC)c1OC [Example 161, 3-phenyl-N-{4-[5-(3,4,5-trimethoxy-phenyl)-1H-pyrrolo[2,3-b]pyridin-3-yl]-benzyl}-propionamide]
29 | 100 to 1000 | O=c1[nH]c2ncc(-c3ccc(O)cc3)nc2n1-c1ccc2scnc2c1 [Example 97, 1-(benzo[d]thiazol-5-yl)-6-(4-hydroxyphenyl)-1H-imidazo[4,5-b]pyrazin-2(3H)-one]
30 | 100 to 1000 | COc1cc(-c2cnc3[nH]c(=O)n(-c4ccc5scnc5c4)c3n2)cc(OC)c1OC [Example 96, 1-(benzo[d]thiazol-5-yl)-6-(3,4,5-trimethoxyphenyl)-1H-imidazo[4,5-b]pyrazin-2(3H)-one]
31 | 100 to 1000 | COc1ccc(-c2cnc3[nH]c(=O)n(-c4cnc5[nH]ccc5c4)c3n2)cc1OC [Example 111, 6-(3,4-dimethoxyphenyl)-1-(1H-pyrrolo[2,3-b]pyridin-5-yl)-1H-imidazo[4,5-b]pyrazin-2(3H)-one]
32 | 100 to 1000 | Nc1ccc(-c2c[nH]c3ncc(-c4ccc(N)nc4)cc23)cc1 [Example 23, 5-(3-(4-aminophenyl)-1H-pyrrolo[2,3-b]pyridin-5-yl)pyridin-2-amine]
33 | 100 to 1000 | COc1ccc(-n2c(=O)[nH]c3ncc(-c4cc(OC)c(OC)c(OC)c4)nc32)cc1 [Example 68, 1-(4-methoxyphenyl)-6-(3,4,5-trimethoxyphenyl)-1H-imidazo[4,5-b]pyrazin-2(3H)-one]
34 | 100 to 1000 | CN(C)c1ccc(-c2cnc3[nH]cc(-c4ccc5[nH]ccc5c4)c3c2)cn1 [Example 13, 5-(3-(1H-indol-5-yl)-1H-pyrrolo[2,3-b]pyridin-5-yl)-N,N-dimethylpyridin-2-amine]
35 | < 100 | COc1cc(-c2cnc3[nH]cc(-c4ccc5[nH]ccc5c4)c3n2)cc(OC)c1OC [Example 36, 7-(1H-indol-5-yl)-2-(3,4,5-trimethoxyphenyl)-5H-pyrrolo[3,2-b]pyrazine]
36 | 100 to 1000 | COc1ccc(-c2cnc3[nH]c(=O)n(CC4CC4)c3n2)cc1OC [Example 79, 1-(cyclopropylmethyl)-6-(3,4-dimethoxyphenyl)-1H-imidazo[4,5-b]pyrazin-2(3H)-one]
37 | 100 to 1000 | COc1cc(-c2cnc3c(c2)C(C)(C)C(=O)N3)cc(OC)c1OC [Example 120, 3,3-dimethyl-5-(3,4,5-trimethoxyphenyl)-1H-pyrrolo[2,3-b]pyridin-2(3H)-one]
38 | > 1000 | CC(=O)N1CCN(Cc2ccc(-c3cnc4[nH]cc(-c5ccc6[nH]ccc6c5)c4c3)cc2)CC1 [Example 140, 1-(4-{4-[3-(1H-indol-5-yl)-1H-pyrrolo[2,3-b]pyridin-5-yl]-benzyl}-piperazin-1-yl)-ethanone]

Row | SMILES | IC50 [nM]
39 | COc1cc(-c2cnc3c(c2)C(=Cc2cccnc2)C(=O)N3)cc(OC)c1OC (racemic) [Example 128, 3-pyridin-3-ylmethylene-5-(3,4,5-trimethoxy-phenyl)-1,3-dihydro-pyrrolo[2,3-b]pyridin-2-one] | 100 to 1000
